For orientation: IC50 means the concentration that gives 50% inhibition. A low value points to greater potency in that assay.

Experiment [1] addresses intracellular GCN2 (phosphorylation of the GCN2 substrate eIF2α) (Homo sapiens, UniProt Q9P2K8). Kind of experiment: GCN2 cellular inhibition assay (AlphaScreen SureFire P-eIF2α Ser51, borrelidin-treated U2OS cells). In kind it is cell-based. Conditions: biomarker assay, phosphorylated eIF2α Ser51 in borrelidin-treated U2OS cells. The gist of the method:
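First, U2OS cells are plated and left overnight at 37 °C. Next, compounds (from 40 μM final, 4-fold steps) and 10 μM borrelidin are added for 1 h, cells lysed, and phospho-Ser51 eIF2α detected by AlphaScreen bead sandwich. Inhibition is computed versus borrelidin-only wells.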

The next experiment addresses GCN2 kinase (Homo sapiens, UniProt Q9P2K8). Kind of experiment: GCN2 enzyme inhibition assay (Transcreener ADP2 fluorescence polarization). Type of experiment: biochemical. Conditions: 280 μM ATP, 4 nM GCN2 kinase. The gist of the method:
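4 nM GCN2 + 200 μM (RS)7 + compound (0–8 μM), 10 min preinc.; start with ATP (280 μM final); 1 h, 25 °C; pH 7.5 Tris/NaCl/MgCl2/DTT; ADP FP readout; IC50, Ki(app) via tight-binding fit.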

Experiment [2] relates to primary human pan T-cells. In words: Human IL-2 assay for GCN2 inhibition (IL-2 secretion by T cells in low amino acid condition). In kind it is cell-based. Conditions: T-cell; IL-2 secretion from human T cells, anti-CD3/CD28 stimulation, 96 hours; read-out: IL2/T-cell EC50. From the text:
Tumor microenvironment is profoundly immuno-suppressive. This may be attributed to the depletion of amino acids (like arginine and tryptophan) which triggers the activation of GCN2 in immune cells, including T cell and myeloid cells. In T cells, activation of GCN2 leads to reduce effector functions of CD8 T cells and induction and/or maintenance of immuno-suppressive T-regs. Inhibition of that immuno-suppressive response by GCN2 inhibitors enables an anti-cancer immune response by activating effector T-cells. Herein we describe an in-vitro system we established using human T-cells stimulated in low amino acid condition in order to engage the GCN2 biology. The method described involves the modulation of IL-2 levels secreted by human T cells in responses to the GCN2 inhibitors disclosed herein.
Amino acid-free RPMI was reconstituted with all but one of the amino acids found in standard RMPI (e.g. Arginine, Tryptophan), 10% charcoal-stripped fetal bovine serum, 100 Units/mL penicillin and 0.1 mg/mL streptomycin. Primary human pan T-cells were isolated using Pan T Cell Isolation Kit, human (MACS Miltenyi biotech Cat #Order no. 130-096-535) from apheresis cones and 5×104 pan T-cells per well. The purified T cells are seeded in Nunc™ 96-Well Polystyrene Round Bottom Microwell Plates (the cells are rested in No TRP media in a 15 ml falcon tube in the incubator for 30-45 minutes while titrations for tryptophan and the GCN2 inhibitor compound are made) A plate matrix was developed to titrate both a GCN2 inhibitor and the amino acid of interest ranging from “No Amino Acid” condition, up to the concentration found in the regular RPMI media (20 μM for TRP and 950 μM for Arginine). The cells were incubated for 30 min at 37° C. with the GCN2 inhibitor and then stimulated with 5×104 anti-CD3/CD28 Dynabeads® per well. After 96 hours of incubation the IL-2 level in the supernatant were measured using ELISA (R&D systems Cat #DY202 (Human IL-2 DuoSet ELISA). Data were plotted in GraphPad Prism software and EC50 is calculated.

Sequence of intracellular GCN2 (phosphorylation of the GCN2 substrate eIF2α) (Q9P2K8 whole entry): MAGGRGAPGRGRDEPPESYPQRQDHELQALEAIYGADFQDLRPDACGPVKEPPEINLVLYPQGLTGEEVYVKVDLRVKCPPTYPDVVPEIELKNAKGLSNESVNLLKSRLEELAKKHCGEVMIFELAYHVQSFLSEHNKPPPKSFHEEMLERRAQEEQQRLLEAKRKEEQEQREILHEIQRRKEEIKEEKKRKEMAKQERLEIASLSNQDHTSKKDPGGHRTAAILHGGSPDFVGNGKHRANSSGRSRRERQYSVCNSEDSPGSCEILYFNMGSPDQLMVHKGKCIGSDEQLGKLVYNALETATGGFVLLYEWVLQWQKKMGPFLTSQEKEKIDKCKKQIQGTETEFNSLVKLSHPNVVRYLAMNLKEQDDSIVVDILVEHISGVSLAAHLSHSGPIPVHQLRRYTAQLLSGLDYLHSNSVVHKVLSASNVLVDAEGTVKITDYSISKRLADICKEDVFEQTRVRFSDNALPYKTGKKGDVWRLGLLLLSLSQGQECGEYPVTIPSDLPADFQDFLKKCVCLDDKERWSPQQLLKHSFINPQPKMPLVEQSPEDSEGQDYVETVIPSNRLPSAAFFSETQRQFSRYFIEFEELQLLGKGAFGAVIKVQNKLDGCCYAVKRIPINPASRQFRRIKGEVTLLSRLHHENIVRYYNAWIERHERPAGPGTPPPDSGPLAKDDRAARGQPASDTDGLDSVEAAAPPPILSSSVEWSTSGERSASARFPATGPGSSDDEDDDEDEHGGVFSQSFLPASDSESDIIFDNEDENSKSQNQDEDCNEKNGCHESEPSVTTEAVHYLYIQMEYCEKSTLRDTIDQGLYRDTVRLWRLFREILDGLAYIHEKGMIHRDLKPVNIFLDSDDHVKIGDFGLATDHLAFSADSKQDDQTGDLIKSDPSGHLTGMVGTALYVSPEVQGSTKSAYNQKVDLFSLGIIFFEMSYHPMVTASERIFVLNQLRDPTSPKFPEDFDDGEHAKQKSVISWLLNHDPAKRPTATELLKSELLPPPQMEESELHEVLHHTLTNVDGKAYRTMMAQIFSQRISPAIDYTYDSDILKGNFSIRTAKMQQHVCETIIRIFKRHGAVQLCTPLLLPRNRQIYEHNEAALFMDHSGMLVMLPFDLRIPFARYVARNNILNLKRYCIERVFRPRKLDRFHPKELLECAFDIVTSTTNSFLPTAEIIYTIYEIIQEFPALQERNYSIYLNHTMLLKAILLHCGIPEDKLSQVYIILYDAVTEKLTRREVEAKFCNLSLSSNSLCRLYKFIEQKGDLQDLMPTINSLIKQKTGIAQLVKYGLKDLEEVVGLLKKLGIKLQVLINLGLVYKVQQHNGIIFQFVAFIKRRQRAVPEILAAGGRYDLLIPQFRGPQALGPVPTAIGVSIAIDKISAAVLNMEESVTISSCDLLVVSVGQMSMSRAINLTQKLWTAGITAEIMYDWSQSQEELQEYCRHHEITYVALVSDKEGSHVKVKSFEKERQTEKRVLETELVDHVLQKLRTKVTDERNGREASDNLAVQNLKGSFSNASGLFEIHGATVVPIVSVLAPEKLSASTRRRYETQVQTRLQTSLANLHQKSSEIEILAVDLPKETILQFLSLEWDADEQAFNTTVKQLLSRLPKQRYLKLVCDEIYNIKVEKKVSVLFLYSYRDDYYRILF
Sequence of GCN2 kinase (Q9P2K8 whole entry): as above

On to `Cc1n[nH]cc1[C@@H]1CN(c2ccnc(-c3cnc4cnc(C(F)(F)F)cn34)n2)C[C@H](C)O1` (stereo in doubt) [IV-763, (2S,6R)-2-methyl-6-(3-methyl-1H-pyrazol-4-yl)-4-(2-(6-(trifluoromethyl)imidazo[1,2-a]pyrazin-3-yl)pyrimidin-4-yl)morpholine], for which the IC50 in experiment [1] (compounds of Formula IV) is less than 500 nM; at GCN2 kinase (compounds of Formula IV), less than 10 nM. Further, the EC50 in experiment [2] was 100 to 500 nM.

As for `C[C@H]1[C@@H](CNS(C)(=O)=O)N(C2CC2)CCN1c1cc(-c2cnc3ccc(C(F)F)nn23)ncn1` [II-752, N-(((2R,3S)-1-cyclopropyl-4-(6-(6-(difluoromethyl)imidazo[12-b]pyridazin-3-yl)pyrimidin-4-yl)-3-methylpiperazin-2-yl)methyl)methanesulfonamide], the IC50 in experiment [1] (compounds of Formula II) is less than 500 nM; at GCN2 kinase (compounds of Formula II), less than 10 nM. In experiment [2], the EC50 is less than 100 nM.

As to `Cc1[nH]ncc1[C@H]1CN(c2cc(-c3cnc4ccc(C(F)(F)F)nn34)ncn2)C[C@@H](C)O1` [II-768, (2R,6S)-2-methyl-6-(5-methyl-1H-pyrazol-4-yl)-4-(6-(6-(trifluoromethyl)imidazo[1,2-b]pyridazin-3-yl)pyrimidin-4-yl)morpholine], the values for the IC50 (in experiment [1] (compounds of Formula II); against GCN2 kinase (compounds of Formula II)) were less than 500 nM and less than 10 nM, respectively. In addition, the EC50 in experiment [2] is more than 500 nM.

Consider `C[C@H]1C[C@@H](c2c[nH]nc2F)CN(c2ccnc(-c3cnc4cnc(C(F)(F)F)cn34)n2)C1` [IV-767], for which the results for the IC50 (in experiment [1] (compounds of Formula IV); at GCN2 kinase (compounds of Formula IV)) were less than 500 nM and less than 10 nM, respectively. The EC50 in experiment [2] was in the range of 100 to 500 nM.

Consider `Cc1n[nH]cc1[C@H]1C[C@@H](O)CN(c2ccnc(-c3cnc4cnc(C(F)(F)F)cn34)n2)C1` [IV-776, (3R,5R)-5-(3-methyl-1H-pyrazol-4-yl)-1-(2-(6-(trifluoromethyl)imidazo[1,2-a]pyrazin-3-yl)pyrimidin-4-yl)piperidin-3-ol], for which the IC50 in experiment [1] (compounds of Formula IV) is 500 to 5000 nM; against GCN2 kinase (compounds of Formula IV), less than 10 nM. The EC50 in experiment [2] is more than 500 nM.

For the origin of these results see patent US10988477B2 (Merck Patent GmbH, priority 2018, dated 2021).
